Legend:
bovine embryos [1] = test: in vitro culture test of low-quality bovine embryos after 7 days of non-freezing preservation (survival, hatching); type: cell-based, Japanese Black Cattle and Holstein Cattle; conditions: for Hatched embryos (%) / Survival rate (%) / Hatched embryos: number / Survival rate: number of surviving embryos: medium 199, low temperature 7 days; for Hatched embryos: number / Survival rate: number of surviving embryos: out of N; for Number of hatched embryos (%) / Number of live embryos (%) / Number of hatched embryos / Number of live embryos: medium 199, 7 days non-frozen
Description: (§1) Embryos collected from donor bovine animals of Japanese Black Cattle and Holstein Cattle after superovulation were evaluated for their qualities according to the regulation by International Embryo Transfer Society (IETS manual. Manual of the international embryo transfer society. In: Stringfellow D A, Seidel S M, editors. Savoy, Ill., USA: IETS 1998). Low-quality embryos were subjected to an in vitro culture test after 7 days of non-freezing preservation, and high-quality embryos were subjected to investigation of the conception rate after implantation to recipient cattle.
(§2) Preservation of bovine embryos was carried out as follows (FIG. 1). First, a preservative solution alone was sucked into a straw having a capacity of 0.25 ml, and, after introduction of an air layer, a bovine embryo contained in the preservative solution was sucked. Thereafter, an air layer was introduced, and the preservative solution alone was sucked again. The straw was then sealed. Subsequently, the straw containing the sucked bovine embryo was immersed in water contained in a plastic container (plastic tube) which had been preliminarily cooled to 4 to 5° C. The plastic container was then stored in a refrigerator for 7 days at 4 to 5° C.
(§3) After the non-freezing preservation, the bovine embryo was washed 3 times by immersion in PBS(+) containing 5% (v/v) fetal bovine serum (FBS). The washed bovine embryo was cultured under 5% CO2 at 38° C. in CR1aa medium containing 5% (v/v) FBS for 48 hours. Morphological observation was carried out under a stereoscopic microscope, and the embryo was judged to be alive if the progress of cleavage by the culture could be found and the cytoplasmic membrane was not disrupted. Live cells were checked for whether hatching from the zona pellucida could be observed or not. A bovine embryo washed with PBS(+) containing 5% (v/v) FBS was nonsurgically implanted into the deep part of the corpus-luteum-side uterine horn of each recipient cattle on Day 6 to 8 of an estrous cycle (the date of estrus was defined as Day 0). On Days 30 and 60 of the estrous cycle, pregnancy diagnosis was carried out. For a significance test to verify the effect of the embryo preservation solution according to the present invention, a χ^2 test was used.
(§4) To medium 199 (Invitrogen) supplemented with antibiotics (penicillin G potassium and streptomycin sulfate), FBS was added to 20 to 50% (v/v), and HEPES was also added to a concentration of 0 to 100 mM. In the conception test, a group in which a special peptide having a protection effect against low temperature (mature Nfel1, SEQ ID NO:2) was added was also provided. In addition, in order to investigate the effects of other Good's buffers other than HEPES, preservation solutions were prepared by adding FBS and a Good's buffer (PIPES or MOPS) to medium 199 such that the concentration of FBS was 50% (v/v) and the concentration of the Good's buffer was 25 mM. These preservation solutions were sterilized by filtration through a filter having a pore size of 0.2 μm, and stored in a refrigerator until use.
Using medium 199 to which a Good's buffer was added at 25 mM (FBS concentration, 50% (v/v) FBS), bovine embryos were preserved at low temperature for 7 days, and the survival rate and the hatching rate were investigated by the method described above. […] In Table 3, “pH” indicates the pH of the medium upon completion of the refrigerated storage for 7 days.

[2] = pH of the preservative solution upon completion of preservation; type: physicochemical; conditions: for pH of the medium upon completion of the refrigerated storage for 7 days: Good's buffer 25 mM, FBS 50% (v/v), medium 199; for pH upon completion of preservation: medium 199, 7 days
Description: Preservation of bovine embryos was carried out as follows (FIG. 1). First, a preservative solution alone was sucked into a straw having a capacity of 0.25 ml, and, after introduction of an air layer, a bovine embryo contained in the preservative solution was sucked. Thereafter, an air layer was introduced, and the preservative solution alone was sucked again. The straw was then sealed. Subsequently, the straw containing the sucked bovine embryo was immersed in water contained in a plastic container (plastic tube) which had been preliminarily cooled to 4 to 5° C. The plastic container was then stored in a refrigerator for 7 days at 4 to 5° C. […]

bovine embryos [3] = test: conception test: implantation of high-quality bovine embryos preserved 7 days in the non-frozen state into recipient cattle; type: in vivo; conditions: 25 mM HEPES; for Conceptus number on Day 30 / Conceptus number on Day 60: 16 implanted embryos
Description: as §1, §2, §3, §4
Subsequently, the conception ability of high-quality bovine embryos that had been preserved in the non-frozen state for 7 days was investigated. Since the concentration of HEPES generally recommended for use in cell culture is 10 to 25 mM (Luo S et al., Effect of HEPES buffer on the uptake and transport of P-glycoprotein substrates and large neutral amino acids. Mol Pharm 2010; 7:412-420), the concentration of HEPES in the non-freezing preservative solution used in the present test for investigation of the conception ability was set to 25 mM. The special recombinant peptide having a protection effect against low temperature (mature Nfel1 peptide) was added to medium 199 containing 50% (v/v) FBS supplemented with 25 mM HEPES, to see whether the peptide improves the conception ability or not.

bovine embryos [4] = conditions: mature Nfel1 in combination with about 20 to 50% (v/v) serum; cited from earlier work
[5] = 25 mM tris (pH adjusted to 7.2 with hydrochloric acid), medium 199, 50% (v/v) FBS, 7 days
[6] = Good's buffer 25 mM, FBS 50% (v/v)
[7] = medium 199, 50% (v/v) FBS, 7 days non-frozen
[8] = 12.5 mM HEPES, 20% FBS, 35 tested embryos
[9] = 12.5 mM HEPES, 50% FBS, 35 tested embryos
[10] = 25 mM HEPES, 20% FBS, 36 tested embryos
[11] = 25 mM HEPES, 50% FBS, 36 tested embryos
[12] = 50 mM HEPES, 20% FBS, 30 tested embryos
[13] = 50 mM HEPES, 50% FBS, 30 tested embryos
[14] = 100 mM HEPES, 50% FBS, 20 tested embryos

tris(hydroxymethyl)aminomethane [reference compound]
hatching rate after the preservation (bovine embryos [1]; [5]): 5.0% | survival rate after the preservation (bovine embryos [1]; [5]): 10.0% | pH after the low-temperature preservation ([2]; 25 mM tris, medium 199, 50% (v/v) FBS, 7 days): 7.2

O=S(=O)(O)CCNC(CO)(CO)CO [TES, N-Tris(hydroxymethyl)methyl-2-aminoethanesulfonic acid]
Hatched embryos (%) (bovine embryos [1]; [6]): 15.0% | Survival rate (%) (bovine embryos [1]; [6]): 30.0% | Hatched embryos: number (bovine embryos [1]; [6]): 3 | Survival rate: number of surviving embryos (bovine embryos [1]; [6]): 6 | pH of the medium upon completion of the refrigerated storage for 7 days [2]: 7.2

O=S(=O)(O)CCCN1CCN(CCO)CC1 [EPPS, 3-[4-(2-Hydroxyethyl)-1-piperazinyl]propanesulfonic acid]
Hatched embryos (%) (bovine embryos [1]; [6]): 10.0% | Survival rate (%) (bovine embryos [1]; [6]): 35.0% | Hatched embryos: number (bovine embryos [1]; [6]): 2 | Survival rate: number of surviving embryos (bovine embryos [1]; [6]): 7 | pH of the medium upon completion of the refrigerated storage for 7 days [2]: 7.3

Special recombinant peptide: special peptide having a protection effect against low temperature (mature Nfel1, SEQ ID NO:2), 66 residues, expressed in E. coli
Conceptus number on Day 30 (%) (bovine embryos [3]; [7]): 75.0% | Conceptus number on Day 60 (%) (bovine embryos [3]; [7]): 75.0% | Conceptus number on Day 30 (bovine embryos [3]; [7]): 12 | Conceptus number on Day 60 (bovine embryos [3]; [7]): 12 | conception-promoting effect (bovine embryos [3]; peptide added to medium 199, 50% (v/v) FBS): No conception-promoting effect was found | period of preservation of bovine embryos at non-freezing low temperature (bovine embryos [4]): up to 5 days

O=S(=O)(O)CCN1CCN(CCO)CC1 [HEPES, 4-(2-hydroxyethyl)-1-piperazineethanesulfonic acid]
Number of hatched embryos (%) (bovine embryos [1]; 12.5 mM HEPES, 20% FBS): 8.6% | Number of live embryos (%) (bovine embryos [1]; 12.5 mM HEPES, 20% FBS): 25.7% | Number of hatched embryos (bovine embryos [1]; [8]): 3 | Number of live embryos (bovine embryos [1]; [8]): 9 | Number of hatched embryos (%) (bovine embryos [1]; 12.5 mM HEPES, 50% FBS): 25.7% | Number of live embryos (%) (bovine embryos [1]; 12.5 mM HEPES, 50% FBS): 54.3% | Number of hatched embryos (bovine embryos [1]; [9]): 9 | Number of live embryos (bovine embryos [1]; [9]): 19 | Number of hatched embryos (%) (bovine embryos [1]; 25 mM HEPES, 20% FBS): 25.0% | Number of live embryos (%) (bovine embryos [1]; 25 mM HEPES, 20% FBS): 63.9% | Number of hatched embryos (bovine embryos [1]; [10]): 9 | Number of live embryos (bovine embryos [1]; [10]): 23 | Number of hatched embryos (%) (bovine embryos [1]; 25 mM HEPES, 50% FBS): 36.1% | Number of live embryos (%) (bovine embryos [1]; 25 mM HEPES, 50% FBS): 69.4% | Number of hatched embryos (bovine embryos [1]; [11]): 13 | Number of live embryos (bovine embryos [1]; [11]): 25 | Number of hatched embryos (%) (bovine embryos [1]; 50 mM HEPES, 20% FBS): 26.7% | Number of live embryos (%) (bovine embryos [1]; 50 mM HEPES, 20% FBS): 63.3% | Number of hatched embryos (bovine embryos [1]; [12]): 8 | Number of live embryos (bovine embryos [1]; [12]): 19 | Number of hatched embryos (%) (bovine embryos [1]; 50 mM HEPES, 50% FBS): 33.3% | Number of live embryos (%) (bovine embryos [1]; 50 mM HEPES, 50% FBS): 73.3% | Number of hatched embryos (bovine embryos [1]; [13]): 10 | Number of live embryos (bovine embryos [1]; [13]): 22 | Number of hatched embryos (%) (bovine embryos [1]; 100 mM HEPES, 50% FBS): 20.0% | Number of live embryos (%) (bovine embryos [1]; 100 mM HEPES, 50% FBS): 65.0% | Number of hatched embryos (bovine embryos [1]; [14]): 4 | Number of live embryos (bovine embryos [1]; [14]): 13 | effect to protect embryos during non-freezing low-temperature preservation, compared among Good's buffers (bovine embryos [1]; Good's buffer 25 mM, FBS 50% (v/v), medium 199, 7 days): highest effect | Hatched embryos (%) (bovine embryos [1]; [6]): 36.1% | Survival rate (%) (bovine embryos [1]; [6]): 69.4% | Hatched embryos: number (bovine embryos [1]; [6]): 13 | Survival rate: number of surviving embryos (bovine embryos [1]; [6]): 25 | survival rate after preservation for 7 days compared to the HEPES-free group (bovine embryos [1]; HEPES 12.5 to 100 mM, low-quality bovine embryos): higher survival rate | rate of hatching from the zona pellucida (bovine embryos [1]; HEPES 25 to 50 mM, FBS 50% (v/v)): especially high | conception rate (bovine embryos [3]; high-quality bovine embryos, 7 days non-frozen, medium 199, 50% (v/v) FBS): 75.0% | Conceptus number on Day 30 (%) (bovine embryos [3]; [7]): 75.0% | Conceptus number on Day 60 (%) (bovine embryos [3]; [7]): 75.0% | birth of calves (bovine embryos [3]; [7]): birth of normal calves could be observed | death of early embryos between Day 30 and Day 60 of pregnancy (bovine embryos [3]; [7]): not found | Conceptus number on Day 30 (bovine embryos [3]; [7]): 12 | Conceptus number on Day 60 (bovine embryos [3]; [7]): 12 | pH upon completion of preservation ([2]; 12.5 mM HEPES, 20% FBS): 7.4 | pH upon completion of preservation ([2]; 12.5 mM HEPES, 50% FBS): 7.4 | pH upon completion of preservation ([2]; 25 mM HEPES, 20% FBS): 7.3 | pH upon completion of preservation ([2]; 25 mM HEPES, 50% FBS): 7.0 | pH upon completion of preservation ([2]; 50 mM HEPES, 20% FBS): 6.9 | pH upon completion of preservation ([2]; 50 mM HEPES, 50% FBS): 6.8 | pH upon completion of preservation ([2]; 100 mM HEPES, 50% FBS): 6.9 | pH of the medium upon completion of the refrigerated storage for 7 days [2]: 7.0 | pH of the non-freezing preservative solution containing HEPES upon completion of the preservation ([2]; HEPES-containing solutions of Table 1): 6.9 to 7.4

O=S(=O)(O)CCCN1CCOCC1 [MOPS, 3-Morpholinopropanesulfonic acid]
Hatched embryos (%) (bovine embryos [1]; [6]): 25.0% | Survival rate (%) (bovine embryos [1]; [6]): 45.0% | Hatched embryos: number (bovine embryos [1]; [6]): 5 | Survival rate: number of surviving embryos (bovine embryos [1]; [6]): 9 | pH of the medium upon completion of the refrigerated storage for 7 days [2]: 7.0

O=S(=O)(O)CCN1CCN(CCS(=O)(=O)O)CC1 [PIPES, Piperazine-1,4-bis(2-ethanesulfonic acid)]
Hatched embryos (%) (bovine embryos [1]; [6]): 25.0% | Survival rate (%) (bovine embryos [1]; [6]): 40.0% | Hatched embryos: number (bovine embryos [1]; [6]): 5 | Survival rate: number of surviving embryos (bovine embryos [1]; [6]): 8 | pH of the medium upon completion of the refrigerated storage for 7 days [2]: 7.0
